Test results taken from patent US10626112B2, “Heterocyclic sulfonamide derivative and medicine comprising same” (EA PHARMA CO., LTD., priority 2014, dated 2020).

target: human TRPA1 (Homo sapiens (Human), UniProt O75762); test: Measurement of TRPA1 antagonist activity (1): intracellular calcium increase; format: cell-based; conditions: 293T cells transfected with human TRPA1 expression plasmid; allylisothiocyanate 20 μM stimulation; intracellular calcium fluorescence; read-out: hTRPA1 IC50
Procedure, shortened: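 HEK293T cells transiently transfected with full-length human TRPA1, loaded with Calcium4 dye in HBSS/20 mM HEPES pH 7.2. Test compound preincubated 10 min, then allylisothiocyanate added at 20 μM final and fluorescence change followed for 5 min. IC50 from sigmoid fit of percent inhibition relative to agonist and buffer controls.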

Chain of human TRPA1 (O75762 whole entry): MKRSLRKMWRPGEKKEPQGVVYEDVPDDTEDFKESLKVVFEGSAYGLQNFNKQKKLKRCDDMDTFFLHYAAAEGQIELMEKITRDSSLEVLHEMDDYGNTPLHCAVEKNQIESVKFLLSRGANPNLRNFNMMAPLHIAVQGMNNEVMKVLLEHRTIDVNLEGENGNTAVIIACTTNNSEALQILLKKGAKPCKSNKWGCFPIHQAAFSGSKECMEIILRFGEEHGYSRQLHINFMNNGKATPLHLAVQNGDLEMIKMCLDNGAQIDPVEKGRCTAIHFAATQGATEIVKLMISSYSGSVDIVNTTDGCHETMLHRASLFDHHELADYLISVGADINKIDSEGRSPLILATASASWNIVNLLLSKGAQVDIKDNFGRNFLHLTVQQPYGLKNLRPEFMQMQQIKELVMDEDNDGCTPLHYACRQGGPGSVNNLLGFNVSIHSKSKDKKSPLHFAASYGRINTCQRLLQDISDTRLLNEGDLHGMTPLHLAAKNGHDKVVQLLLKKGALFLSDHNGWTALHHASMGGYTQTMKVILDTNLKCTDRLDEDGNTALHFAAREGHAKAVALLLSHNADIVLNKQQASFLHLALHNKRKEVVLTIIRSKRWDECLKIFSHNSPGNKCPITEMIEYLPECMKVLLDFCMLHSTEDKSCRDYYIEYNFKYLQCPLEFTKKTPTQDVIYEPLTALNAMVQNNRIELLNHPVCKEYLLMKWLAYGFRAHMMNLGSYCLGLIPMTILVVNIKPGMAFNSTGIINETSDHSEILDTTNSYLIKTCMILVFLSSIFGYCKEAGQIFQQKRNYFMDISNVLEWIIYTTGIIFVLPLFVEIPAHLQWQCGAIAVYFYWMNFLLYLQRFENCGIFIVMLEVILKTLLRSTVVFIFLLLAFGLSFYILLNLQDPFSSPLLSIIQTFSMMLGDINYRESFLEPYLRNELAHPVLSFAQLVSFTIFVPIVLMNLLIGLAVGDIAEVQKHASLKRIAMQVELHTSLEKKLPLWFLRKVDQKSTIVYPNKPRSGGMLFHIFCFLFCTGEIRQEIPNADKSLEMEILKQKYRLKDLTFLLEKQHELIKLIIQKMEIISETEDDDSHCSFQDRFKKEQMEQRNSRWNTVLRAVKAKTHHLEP

IC50 [nM]	SMILES
55	C[C@H](NS(=O)(=O)c1cc2cc(F)ccc2o1)C(=O)NCc1cc(-c2cnc(C(F)(F)F)cn2)ccn1 [Example 243, (2S)-2-[(5-fluorobenzofuran-2-yl)sulfonylamino]-N-[[4-[5-(trifluoromethyl)pyrazin-2-yl]-2-pyridyl]methyl]propanamide]
75	C[C@H](NS(=O)(=O)c1cc2cc(F)ccc2o1)C(=O)NCc1cc(-c2cnc(C(F)(F)F)nc2)ccn1 [Example 241, (2S)-2-[(5-fluorobenzofuran-2-yl)sulfonylamino]-N-[[4-[2-(trifluoromethyl)pyrimidin-5-yl]-2-pyridyl]methyl]propanamide]
19	O=C(NCc1cccc(OCc2ccncc2)c1)[C@@H]1CCCN1S(=O)(=O)c1cc2cc(F)ccc2o1 [Example 13, (2S)-1-(5-fluorobenzofuran-2-yl)sulfonyl-N-[[3-(4-pyridylmethoxy)phenyl]methyl]pyrrolidine-2-carboxamide]
29	O=C(NCc1ccnc(-c2cc(F)c(F)cc2O)c1)[C@@H]1CCCN1S(=O)(=O)c1cc2cc(F)ccc2o1 [Example 137, (2S)-N-[[2-(4,5-difluoro-2-hydroxy-phenyl)-4-pyridyl]methyl]-1-(5-fluorobenzofuran-2-yl)sulfonyl-pyrrolidine-2-carboxamide]
23	O=C(NCc1cccc(-c2ccc(C(F)(F)F)nc2)c1)[C@@H]1[C@@H](O)CCN1S(=O)(=O)c1cc2cc(F)ccc2o1 [Example 93, (2S,3S)-1-(5-fluorobenzofuran-2-yl)sulfonyl-3-hydroxy-N-[[3-[6-(trifluoromethyl)-3-pyridyl]phenyl]methyl]pyrrolidine-2-carboxamide]
34	CN(C)c1ccc(COc2cccc(CNC(=O)[C@@H]3CCCN3S(=O)(=O)c3cc4cc(F)ccc4o3)c2)cn1 [Example 21, (2S)-N-[[3-[[6-(dimethylamino)-3-pyridyl]methoxy]phenyl]-methyl]-1-(5-fluorobenzofuran-2-yl)sulfonyl-pyrrolidine-2-carboxamide]
310	N#Cc1ccc(-c2cccc(CNC(=O)[C@@H]3CCCN3S(=O)(=O)c3cc4cc(F)ccc4o3)n2)cc1 [Example 146, (2S)-N-[[6-(4-cyanophenyl)-2-pyridyl]methyl]-1-(5-fluorobenzofuran-2-yl)sulfonyl-pyrrolidine-2-carboxamide]
2.7	O=C(NCc1cccc(Oc2ccc(C(F)(F)F)cc2)c1)[C@@H]1CCCN1S(=O)(=O)c1cc2cc(F)ccc2o1 [Example 53, (2S)-1-(5-fluorobenzofuran-2-yl)sulfonyl-N-[[3-[4-(trifluoromethyl)phenoxy]phenyl]-methyl]pyrrolidine-2-carboxamide]
150	O=C(NCc1ccc(-c2cccc(F)c2)cc1)[C@@H]1CCCN1S(=O)(=O)c1cc2ccccc2o1 [Example 169, (2S)-1-(benzofuran-2-ylsulfonyl)-N-[[4-(3-fluorophenyl)phenyl]methyl]-pyrrolidine-2-carboxamide]
200	O=C(NCc1cccc(Cl)c1)[C@@H]1CCCN1S(=O)(=O)c1cc2ccccc2o1 [Example 60, (2S)-1-(benzofuran-2-ylsulfonyl)-N-[(3-chlorophenyl)methyl]pyrrolidine-2-carboxamide]
1.9	O=C(NCc1cc(-c2ccc(C(F)(F)F)cn2)ccn1)[C@@H]1C[C@H]2C[C@H]2N1S(=O)(=O)c1cc2cc(F)ccc2o1 [Example 258, (1R,3S,5R)-4-(5-fluorobenzofuran-2-yl)sulfonyl-N-[[4-[5-(trifluoromethyl)-2-pyridyl]-2-pyridyl]methyl]-4-azabicyclo[3.1.0]hexane-3-carboxamide]
0.76	O=C(NCc1ccnc(-c2ccc(C(F)(F)F)cc2)c1)[C@@H]1C=CCN1S(=O)(=O)c1cc2cc(F)ccc2o1 [Example 98, (2S)-1-(5-fluorobenzofuran-2-yl)sulfonyl-N-[[2-[4-(trifluoromethyl)phenyl]-4-pyridyl]methyl]-2,5-dihydropyrrole-2-carboxamide]
34	C[C@H](NS(=O)(=O)c1cc2cc(F)ccc2o1)C(=O)NCc1cccc(-c2cnc(C(F)(F)F)cn2)c1 [Example 234, (2S)-2-[(5-fluorobenzofuran-2-yl)sulfonylamino]-N-[[3-[5-(trifluoromethyl)pyrazin-2-yl]phenyl]methyl]propanamide]
1.7	O=C(NCc1ccc(F)c(-c2ccc(C(F)(F)F)cc2)c1)[C@@H]1CCCN1S(=O)(=O)c1cc2ccccc2o1 [Example 307, (2S)-1-(benzofuran-2-ylsulfonyl)-N-[[4-fluoro-3-[4-(trifluoromethyl)phenyl]phenyl]methyl]pyrrolidine-2-carboxamide]
26	C[C@H](NS(=O)(=O)c1cc2cnccc2o1)C(=O)NCc1cc(-c2ccc(OC(F)(F)F)cc2)ncn1 [Example 305, (2S)-2-(furo[3,2-c]pyridin-2-ylsulfonylamino)-N-[[6-[4-(trifluoromethoxy)phenyl]pyrimidin-4-yl]methyl]propanamide]
37	CC#CCN([C@@H](C)C(=O)NCc1ccnc(-c2ccc(C(F)(F)F)nc2)c1)S(=O)(=O)c1cc2cc(F)ccc2o1 [Example 313, (2S)-2-[but-2-ynyl-(5-fluorobenzofuran-2-yl)sulfonyl-amino]-N-[[2-[6-(trifluoromethyl)-3-pyridyl]-4-pyridyl]methyl]propanamide]
0.84	O=C(NCc1cc(-c2ccc(C(F)(F)F)cc2)ncn1)[C@@H]1CCCN1S(=O)(=O)c1cc2cc(F)ccc2o1 [Example 90, (2S)-1-(5-fluorobenzofuran-2-yl)sulfonyl-N-[[6-[4-(trifluoromethyl)phenyl]pyrimidin-4-yl]methyl]pyrrolidine-2-carboxamide]
560	O=C(NCc1cccc(C[S+]([O-])c2ccc(C(F)(F)F)cc2)c1)[C@@H]1CCCN1S(=O)(=O)c1cc2ccccc2o1 (stereo partly drawn) [Example 325, (2S)-1-(benzofuran-2-ylsulfonyl)-N-[[3-[[4-(trifluoromethyl)phenyl]sulfinylmethyl]phenyl]methyl]pyrrolidine-2-carboxamide]
1.6	O=C(NCc1cc(F)cc(OCc2ccccc2)c1)[C@@H]1CCCN1S(=O)(=O)c1cc2cc(F)ccc2o1 [Example 34, (2S)-N-[(3-benzyloxy-5-fluoro-phenyl)methyl]-1-(5-fluorobenzofuran-2-yl)sulfonyl-pyrrolidine-2-carboxamide]
37	O=C(NCc1cc(-c2ccc(C(F)(F)F)cn2)ccn1)[C@@H]1CCCCN1S(=O)(=O)c1cc2cc(F)ccc2o1 [Example 261, (2S)-1-(5-fluorobenzofuran-2-yl)sulfonyl-N-[[4-[5-(trifluoromethyl)-2-pyridyl]-2-pyridyl]methyl]piperidine-2-carboxamide]
100	O=C(NCc1ccccc1OC(F)(F)F)[C@@H]1CCCN1S(=O)(=O)c1cc2ccccc2o1 [Example 64, (2S)-1-(benzofuran-2-ylsulfonyl)-N-[[2-(trifluoromethoxy)phenyl]methyl]-pyrrolidine-2-carboxamide]
1.5	O=C(NCc1cc(-c2ccc(C(F)(F)F)nc2)ccn1)[C@@H]1CCCN1S(=O)(=O)c1cc2cc(F)ccc2o1 [Example 149, (2S)-1-(5-fluorobenzofuran-2-yl)sulfonyl-N-[[4-[6-(trifluoromethyl)-3-pyridyl]-2-pyridyl]methyl]pyrrolidine-2-carboxamide]
3.1	N#Cc1ccc(-c2cc(CNC(=S)[C@@H]3CCCN3S(=O)(=O)c3cc4ccccc4o3)ccn2)cc1 [Example 293, (2S)-1-(benzofuran-2-ylsulfonyl)-N-[[2-(4-cyanophenyl)-4-pyridyl]methyl]pyrrolidine-2-carbothioamide]
260	O=C(NCc1cccc(-c2ccccc2O)n1)[C@@H]1CCCN1S(=O)(=O)c1cc2cc(F)ccc2o1 [Example 143, (2S)-1-(5-fluorobenzofuran-2-yl)sulfonyl-N-[[6-(2-hydroxyphenyl)-2-pyridyl]methyl]pyrrolidine-2-carboxamide]
4	O=C(NCc1cc(-c2ccc(C(F)(F)F)nc2)ncn1)[C@@H]1CCCN1S(=O)(=O)c1cc2ccccc2o1 [Example 205, (2S)-1-(benzofuran-2-ylsulfonyl)-N-[[6-[6-(trifluoromethyl)-3-pyridyl]pyrimidin-4-yl]methyl]pyrrolidine-2-carboxamide]
12	O=C(NCc1cc(-c2ccc(C(F)(F)F)cn2)ncn1)[C@@H]1CCCN1S(=O)(=O)c1cc2ccccc2o1 [Example 206, (2S)-1-(benzofuran-2-ylsulfonyl)-N-[[6-[5-(trifluoromethyl)-2-pyridyl]pyrimidin-4-yl]methyl]pyrrolidine-2-carboxamide]
20	C[C@H](NS(=O)(=O)c1cc2cc(F)ccc2o1)C(=O)NCc1cc(-c2cnc(C(F)(F)F)nc2)ncn1 [Example 248, (2S)-2-[(5-fluorobenzofuran-2-yl)sulfonylamino]-N-[[6-[2-(trifluoromethyl)pyrimidin-5-yl]pyrimidin-4-yl]methyl]propanamide]
0.38	O=C(NCc1cccc(-c2ccc(C(F)(F)F)cn2)c1)[C@@H]1CCCN1S(=O)(=O)c1cc2cc(F)ccc2o1 [Example 89, (2S)-1-(5-fluorobenzofuran-2-yl)sulfonyl-N-[[3-[5-(trifluoromethyl)-2-pyridyl]phenyl]methyl]pyrrolidine-2-carboxamide]
29	O=C(NCc1ccc(Oc2cccc(C(F)(F)F)c2)cc1)[C@@H]1CCCN1S(=O)(=O)c1cc2cnccc2o1 [Example 268, (2S)-1-furo[3,2-c]pyridin-2-ylsulfonyl-N-[[4-[3-(trifluoromethyl)phenoxy]-phenyl]methyl]pyrrolidine-2-carboxamide]
0.61	O=C(NCc1ccnc(-c2ccc(C(F)(F)F)cc2)c1)[C@@H]1CCCN1S(=O)(=O)c1cc2cc(F)ccc2o1 [Example 128, (2S)-1-(5-fluorobenzofuran-2-yl)sulfonyl-N-[[2-[4-(trifluoromethyl)phenyl]-4-pyridyl]methyl]pyrrolidine-2-carboxamide]
